Experimental data taken from patent US7910344B2, “Proteins having tyrosinase activity” (Valtion teknillinen tutkimuskeskus, priority 2005, dated 2011).
Where two headings read alike, the source gives them in different places. One block for each compound: values may come before it.

Experiments:
[1] = test system: TYR2; assay: Substrate specificity by oxygen consumption measurements, purified TYR2; assay type: biochemical, Trichoderma reesei
Experimental: (§1) pH optimum for the tyrosinase was studied by oxygen consumption measurements. Measurements were performed with a single channel oxygen meter (Precision sensing GmbH, Germany) containing fiber-optic oxygen minisensors with measurement range 0-100% oxygen. L-Dopa in 15 mM concentration, dissolved in 0.1 M sodium phosphate buffer, pH 7.0, was used as substrate. Reactions were carried out with 1.8 ml substrate solution and with 4.3 μg of the purified T. reesei tyrosinase. Three different buffers were used according to their buffer capacity. McIlvaine buffer was used within a pH range of 2-7, Tris-HCl buffer (50 mM) within a pH range 7-9 and borate buffer (12.5 mM) within a pH range of 8-9.5. […] In the measurements with Tris-HCl buffer in pH 8, 8.5 and 9.0 also a blank test without enzyme addition was performed to correct the effect of auto-oxidation in results.
(§2) Substrate specificity of the tyrosinase on various selected substrates was studied by oxygen consumption measurements. The concentration of substrates was 2.5 mM, and the compounds were dissolved in 0.1 M sodium phosphate buffer, pH 7.0. Reactions were carried out with 1.8 ml of 2.5 mM substrate solutions and with 24 μg of the purified TYR2. As a reference the substrate specificity assays were also determined for the commercial Agaricus bisporus crude tyrosinase (Sigma). Respectively, 50 μg of said mushroom tyrosinase was used in the assays. Activity of TYR2 and Agaricus tyrosinase were analyzed on selected model peptides containing tyrosine in different positions in the peptide chain (Table 5). Oxidation of L-/DL-D-Dopa and -tyrosine by TYR2 and Agaricus tyrosinase was also measured (Table 6).

[2] = test system: Agaricus bisporus crude tyrosinase (Sigma); assay: Substrate specificity by oxygen consumption measurements, commercial Agaricus tyrosinase; assay type: biochemical; settings: for Agaricus tyr Relative oxygen consumption (%): mono-phenols
Experimental: as §1, §2

[3] = test system: Trichoderma reesei; assay: Plate test screening for tyrosinase activity from T. reesei; assay type: cell-based; settings: T. reesei on Malt Extract agar with indicator
Experimental: The indicators for tyrosinase activity screening were selected according to literature. L-Tyrosine, p-cresol, p-coumaric acid, tyramine, 3-hydroxy antranilic acid, and catechin were used in concentrations shown in Table 1. Trichoderma reesei was grown on Malt Extract agar containing the selected indicators (Table 1) (Difco) at 37° C. for 48 days. Possible colour changes on the plates were observed visually.

[4] = test system: TYR2; assay: Tyrosinase activity assay monitoring dopachrome formation at 475 nm; assay type: biochemical, Trichoderma reesei
Experimental: The activity was also measured on L-tyrosine (Sigma) in concentration of 2 mM. Both activity assays were carried out in 0.1 M sodium phosphate buffer (pH 7.0) at 25° C. monitoring dopachrome formation at 475 nm. The molar extinction coefficient ε 3400 M^−1 cm^−1 (Robb, 1984) was used. Measurements were carried out by using a two-beam spectrophotometer (Lambda 20, Perkin-Elmer, Über-lingen, Germany). Activities were expressed as nanokatals.
The result was also confirmed by determining the enzyme activity on L-Dopa and L-tyrosine by following oxygen consumption in enzymatic reaction. […] The effect of SDS (Sigma) on tyrosinase activity was measured using different concentrations of SDS in the activity assay.

[5] = L-/DL-/D-tyrosine, L-tyrosine = 100
[6] = mono-phenols, in relation to L-tyrosine, 2.5 mM substrate, pH 7.0, 24 μg TYR2
[7] = in relation to L-tyrosine, 2.5 mM substrate, pH 7.0, 50 μg mushroom tyrosinase
[8] = di- and tri-phenolic compounds, in relation to L-Dopa, 2.5 mM substrate, pH 7.0, 24 μg TYR2
[9] = di- and tri-phenolic compounds, in relation to L-Dopa, 2.5 mM substrate, pH 7.0, 50 μg mushroom tyrosinase
[10] = di-peptides, in relation to L-tyrosine, 2.5 mM substrate, pH 7.0

Compound: Nc1ccc(O)cc1 [4-Aminophenol]
TYR2 Relative oxygen consumption (%) [1, 6]: 8%
Agaricus tyr Relative oxygen consumption (%) [2, 7]: 9%

Compound: Oc1ccc(S)cc1 [4-Mercaptophenol]
TYR2 Relative oxygen consumption (%) [1, 6]: 0%
Agaricus tyr Relative oxygen consumption (%) [2, 7]: 0%

Compound: Oc1cc(O)c2c(c1)O[C@H](c1ccc(O)c(O)c1)[C@@H](O)C2 [(+)-Catechin hydrate]
TYR2 Relative oxygen consumption (%) [1, 8]: 220%
Agaricus tyrosinase Relative oxygen consumption (%) [2, 9]: 282%

Compound: Oc1cc(O)c2c(c1)O[C@H](c1ccc(O)c(O)c1)[C@H](O)C2 [(−)-Epicatechin]
TYR2 Relative oxygen consumption (%) [1, 8]: 106%
Agaricus tyrosinase Relative oxygen consumption (%) [2, 9]: 286%

Compound: Oc1ccccc1 [Phenol]
TYR2 Relative oxygen consumption (%) [1, 6]: 121%
Agaricus tyr Relative oxygen consumption (%) [2, 7]: 85%

Compound: Oc1ccccc1O [Pyrocatechol]
TYR2 Relative oxygen consumption (%) [1, 8]: 88%
Agaricus tyrosinase Relative oxygen consumption (%) [2, 9]: 328%

Compound: CCCCCCCCCCCCOS(=O)(=O)[O-].[Na+] [SDS, sodium dodecyl sulfate]
Tyrosinase activity left in presence of SDS ([4]; 0.5 mM SDS in the activity assay): 50%

Compound: NCCc1ccc(O)cc1 [Tyramine]
TYR2 Relative oxygen consumption (%) [1, 6]: 42%
Reaction with indicator in plate test [3]: clear positive reactions
Agaricus tyr Relative oxygen consumption (%) [2, 7]: 85%

Compound: O=C(O)C=Cc1ccccc1O [o-Coumaric acid]
TYR2 Relative oxygen consumption (%) [1, 6]: 0%
Agaricus tyr Relative oxygen consumption (%) [2, 7]: 0%

Compound: O=C(O)C=Cc1ccc(O)cc1 [p-Coumaric acid]
TYR2 Relative oxygen consumption (%) [1, 6]: 390%
Agaricus tyr Relative oxygen consumption (%) [2, 7]: 0%

Compound: Cc1ccc(O)cc1 [p-Cresol]
TYR2 Relative oxygen consumption (%) [1, 6]: 172%
Agaricus tyr Relative oxygen consumption (%) [2, 7]: 104%

Compound: OCCc1ccc(O)cc1 [p-Tyrosol]
TYR2 Relative oxygen consumption (%) [1, 6]: 346%
Agaricus tyr Relative oxygen consumption (%) [2, 7]: 157%

Compound: Catechin
Reaction with indicator in plate test [3]: clear positive reactions

The next lines start with results.

Agaricus tyrosinase Relative oxygen consumption (%) ([2]; L-/DL-/D-dopa, L-dopa = 100): 118%
Compound: NC(Cc1ccc(O)c(O)c1)C(=O)O (racemic) [DL-dopa]
TYR2 Relative oxygen consumption (%) ([1]; L-/DL-/D-dopa, L-dopa = 100): 46%

Agaricus tyrosinase Relative oxygen consumption (%) [2]: 102%
Compound: NC(Cc1ccc(O)cc1)C(=O)O (racemic) [DL-tyrosine]
TYR2 Relative oxygen consumption (%) [1, 5]: 40%

Reaction with indicator in plate test [3]: clear positive reactions
Agaricus tyr Relative oxygen consumption (%) [2, 7]: 0%
Compound: Nc1c(O)cccc1C(=O)O [3-Hydroxyanthranilic acid]
TYR2 Relative oxygen consumption (%) [1, 6]: 0%

Agaricus tyrosinase Relative oxygen consumption (%) ([2]; L-/DL-/D-dopa, L-dopa = 100): 106%
Compound: N[C@H](Cc1ccc(O)c(O)c1)C(=O)O [D-dopa]
TYR2 Relative oxygen consumption (%) ([1]; L-/DL-/D-dopa, L-dopa = 100): 18%

Agaricus tyrosinase Relative oxygen consumption (%) [2]: 61%
Compound: N[C@H](Cc1ccc(O)cc1)C(=O)O [D-tyrosine]
TYR2 Relative oxygen consumption (%) [1, 5]: 7%

Agaricus tyr Relative oxygen consumption (%) [2, 7]: 0%
Compound: COc1cc(/C=C/C(=O)O)ccc1O [Ferulic acid]
TYR2 Relative oxygen consumption (%) [1, 6]: 0%

Agaricus tyrosinase Relative oxygen consumption (%) ([2]; L-/DL-/D-dopa, L-dopa = 100): 100%
Agaricus tyrosinase Relative oxygen consumption (%) [2, 9]: 100%
Compound: N[C@@H](Cc1ccc(O)c(O)c1)C(=O)O [L-Dopa, L-3,4 dihydroxyphenylalanine]
TYR2 Relative oxygen consumption (%) ([1]; L-/DL-/D-dopa, L-dopa = 100): 100%
TYR2 Relative oxygen consumption (%) [1, 8]: 100%
Activity on L-Dopa compared with L-tyrosine ([4]; 15 mM L-Dopa, 2 mM L-tyrosine, pH 7.0, 25° C.): approximately six times higher activity values than L-tyrosine

Reaction with indicator in plate test [3]: clear positive reactions
Agaricus tyrosinase Relative oxygen consumption (%) [2]: 100%
Agaricus tyrosinase Relative oxygen consumption (%) [2, 10]: 100%
Agaricus tyr Relative oxygen consumption (%) [2, 7]: 100%
Compound: N[C@@H](Cc1ccc(O)cc1)C(=O)O [L-Tyrosine]
TYR2 Relative oxygen consumption (%) [1, 5]: 100%
TYR2 Relative oxygen consumption (%) [1, 10]: 100%
TYR2 Relative oxygen consumption (%) [1, 6]: 100%

Agaricus tyrosinase Relative oxygen consumption (%) [2, 9]: 248%
Compound: Oc1cccc(O)c1O [Pyrogallol]
TYR2 Relative oxygen consumption (%) [1, 8]: 55%
